This passage reports IC50 results from ChEMBL document CHEMBL1177872, “Inhibitors of the RET tyrosine kinase based on a 2-(alkylsulfanyl)-4-(3-thienyl)nicotinonitrile scaffold” (Eur J Med Chem, 2010).

Bounds are passed on as bounds.

The subject of experiment [1] is TPC1. Briefly: Antiproliferative activity against human TPC1 cells expressing RET/PCT1 after 72 hrs by [3H]thymidine incorporation assay. In general terms: Incorporation of labelled thymidine or its analogues reports DNA synthesis.
Experiment [2] concerns the target Tyrosine-protein kinase ABL1 (Homo sapiens, UniProt P00519).
Description: Inhibition of human recombinant histidine-tagged ABL (230-517) expressed in Sf9 cells by ELISA
Experiment [3] in a line: cells. The settings on record: Homo sapiens, LS174T.
Description: Antiproliferative activity against human RET deficient LS 174T cells after 72 hrs by [3H]thymidine incorporation assay
Experiment [4] concerns ARO. Kind of experiment: Antiproliferative activity against human RET deficient ARO cells after 72 hrs by [3H]thymidine incorporation assay.

Chain of Tyrosine-protein kinase ABL1 (P00519 whole entry): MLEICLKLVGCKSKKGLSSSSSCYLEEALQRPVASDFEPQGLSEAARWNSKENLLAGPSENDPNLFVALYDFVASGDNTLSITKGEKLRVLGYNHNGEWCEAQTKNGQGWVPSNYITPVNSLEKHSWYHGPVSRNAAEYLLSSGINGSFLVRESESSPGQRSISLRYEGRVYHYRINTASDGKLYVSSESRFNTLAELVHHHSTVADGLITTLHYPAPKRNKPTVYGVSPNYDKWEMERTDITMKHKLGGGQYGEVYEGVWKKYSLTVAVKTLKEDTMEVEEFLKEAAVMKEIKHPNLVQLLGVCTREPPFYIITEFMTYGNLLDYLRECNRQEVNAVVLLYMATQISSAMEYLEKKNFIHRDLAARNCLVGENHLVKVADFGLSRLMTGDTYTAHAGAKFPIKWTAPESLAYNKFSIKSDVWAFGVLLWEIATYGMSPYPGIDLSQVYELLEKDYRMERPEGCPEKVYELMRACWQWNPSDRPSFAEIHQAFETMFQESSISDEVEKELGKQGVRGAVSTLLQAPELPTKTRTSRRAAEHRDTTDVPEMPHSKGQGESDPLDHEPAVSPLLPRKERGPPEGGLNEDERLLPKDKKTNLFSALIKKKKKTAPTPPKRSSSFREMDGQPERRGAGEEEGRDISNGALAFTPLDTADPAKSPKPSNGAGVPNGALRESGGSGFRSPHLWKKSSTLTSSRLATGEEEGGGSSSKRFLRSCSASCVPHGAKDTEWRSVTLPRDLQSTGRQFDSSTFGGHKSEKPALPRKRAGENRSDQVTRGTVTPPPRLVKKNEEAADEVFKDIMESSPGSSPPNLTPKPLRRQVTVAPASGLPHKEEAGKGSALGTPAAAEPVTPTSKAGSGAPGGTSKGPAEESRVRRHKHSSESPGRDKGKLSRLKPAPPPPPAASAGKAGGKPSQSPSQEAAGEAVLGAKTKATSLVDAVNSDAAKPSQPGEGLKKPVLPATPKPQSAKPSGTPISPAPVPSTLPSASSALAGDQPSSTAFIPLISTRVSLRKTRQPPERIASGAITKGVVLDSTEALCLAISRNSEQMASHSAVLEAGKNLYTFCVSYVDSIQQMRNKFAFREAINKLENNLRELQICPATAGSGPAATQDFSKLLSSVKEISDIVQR

As to `N#Cc1c(SCC(=O)c2ccccc2)nc2c(c1-c1ccsc1)CCCC2`, the values for the IC50 in experiment [1], in experiment [2] and in experiment [3] were above 300 µM, above 150 µM and above 300 µM, respectively.

In the case of `N#Cc1c(SCc2ccccc2)nc2c(c1-c1cccs1)CCCC2`, the IC50 (in general, the concentration that inhibits the measured activity by half) in experiment [1] stood at 17 µM; in experiment [4] it was 8.5 µM; in experiment [2], 72 µM; in experiment [3], 6.2 µM.

Turning to `N#Cc1c(N)nc(SCC(=O)c2ccccc2)c(C#N)c1-c1ccsc1`, the IC50 in experiment [1] is above 300 µM; in experiment [4], above 300 µM; in experiment [2], 0.29 µM; in experiment [3], above 300 µM.

Consider `N#Cc1c(N)nc(SCC(=O)c2ccc(Cl)cc2)c(C#N)c1-c1ccsc1`, for which the IC50 in experiment [1] is 28 µM; in experiment [4], 159 µM; in experiment [2], 60 µM; in experiment [3], 92 µM.

On to `N#Cc1c(SCc2ccc(F)cc2)nc2c(c1-c1cccs1)CCCC2`, for which the IC50 in experiment [1] is 101 µM; in experiment [4], above 300 µM; in experiment [2] it was 74 µM; in experiment [3], above 300 µM.

In experiment [1], `COc1cc2/c(=N/c3ccc(Br)cc3F)nc[nH]c2cc1OCC1CCN(C)CC1` [VANDETANIB] gave an IC50 of 0.116 µM.
